The values below come from US20150299250A1, “MACROCYCLIC COMPOUNDS AND USES THEREOF” (ADELAIDE RESEARCH & INNOVATION PTY LTD, priority 2012, published 2015).

Series [1] has as its target T1, 20S proteasome CP-L activity (Oryctolagus cuniculus, UniProt A0A5F9DQW2).
T1 construct: Purified rabbit 20S proteasome
The series can be described thus: In vitro proteasome activity assay, CP-L (Z-nLPnLD-AMC). The series is classed as biochemical, rabbit. The conditions noted are these: purified 20S proteasome; highest concentration tested 25,000 nM. As to the method: We initially determined the ability of the novel tripeptide MG132 analogues 1-6 and the macrocycles 3a and 4a to inhibit the three separate protease activities of the 20S proteasome (CT-L, -T-L and CP-L). The assays were performed in vitro using purified 20S proteasome/inhibitor mixtures, with the activity of each subunit of the proteasome assessed upon incubation with its respective target peptide. […] In addition, there is no apparent clear-cut preference for the length of tether (compare compounds 1 to 4), while the introduction of an aryl group at P3 (as in 6) is well tolerated.
Purified rabbit 20S proteasome and fluorogenic CT-L substrate (Suc-LLVY-AMC) were purchased from Boston Biochem (Cambridge, Mass., USA). The T-L and CP-L fluorogenic substrates (Ac-RLR-AMC and Z-nLPnLD-AMC) were purchased from Enzo Life Sciences (Farmingdale, N.Y., USA). The 20S proteasome was diluted to 0.2 μg/μL in 20S proteasome buffer (50 mM HEPES pH 7.6, 150 mM NaCl and 1 mM DDT) and stored at −80° C. Purified 20S proteasome (8 ng) was pre-incubated with the indicated concentrations of inhibitors for 15 minutes and subsequently added to the AMC-labeled substrate peptide (50 μM) in assay buffer (25 mM HEPES, pH 7.5, 0.5 mM EDTA, 0.05% NP-40, and 0.001% SDS (w/v)) at 37° C. for 2 hours. Fluorescent substrate cleavage by the 20S proteasome was linear during this incubation timeframe (Supplementary Figure S4. Hydrolysed 7-amino-4-methylcoumarin (AMC) was subsequently detected with the FLUOstar OPTIMA microplatefluorometer at excitation/emission of 390/460 nm. The activity was estimated in relative fluorescence units and half of the maximal inhibitory activity of the proteasome is represented by IC50 values. A minimum of three biological replicates were performed for each data point.

Series [2] has as its system primary human osteoblasts. The series can be described thus: Cell viability assay (7AAD, 48 hours), normal osteoblasts. The series is classed as cell-based. The following applies: Osteoblast, 48 hours exposure, read-out: Normal cell lines IC50 (μM) Osteoblasts. As to the method:
(§1) Cell viability assays were performed as previously described. Briefly, cells were seeded in 96 well microtiterplates at a density of 3×10^4 cells per well in the presence of the indicated chemical. Cells were harvested 48 hours post-treatment, centrifuged at 1,300×g, washed in phosphate-buffered saline (PBS) and stained with 7AAD solution (2 μg/mL) (7-amino-actinomycin-D, Invitrogen, Carlsbad, Calif.) for 10 mins at room temperature. Viable cells were determined with the use of a FACS Calibur flow cytometer (Becton Dickinson Immunocytometry Systems), and analyzed with the use of FLOWJO (Tree Star, Inc) and GraphPad Prism (GraphPad Software Inc).
(§2) WE-68 and VH-64 Ewing's sarcoma cells were kindly supplied by F. van Valen (Department of Orthopaedic Surgery, Westfalische-Wilhelms-University, Germany).TC-252 and STA-ET-1 Ewing's sarcoma cells were kindly provided by G. Hamilton (Department of Surgery, University of Vienna, Austria) or P. Ambros (Children's Cancer Research Institute, St Anna Children's Hospital, Vienna, Austria). Primary human embryonic fibroblasts or primary human osteoblasts were collected from the Women's and Children's Hospital (North Adelaide, South Australia, Australia) or Royal Adelaide Hospital with patient consent. Mouse Embryonic Fibroblasts (MEFs) and its p53-null derivative were kindly supplied by Guillermina Lozano (Department of Genetics, Anderson Cancer Centre, University of Texas, Houston, Tex., USA). WE-68 cell lines were grown in RPMI-1640 media, whilst human embryonic fibroblasts and MEFs were grown in Dulbecco's Modified Eagle's Medium (DMEM). Media was supplemented with 10% FCS, 1% PSG and 10 mM HEPES. All cells were maintained at 37° C. in a humidified atmosphere of 5% CO2.

The test system of series [3] is WE-68 Ewing's sarcoma cells. Kind of series: Cell viability assay (7AAD, 48 hours), WE-68. The following applies: 48 hours exposure; read-out: Cancer cell lines IC50 (μM) WE-68. The series is classed as cell-based. How it is done: as §1, §2
Series [4] deals with VH-64 Ewing's sarcoma cells. The series can be described thus: Cell viability assay (7AAD, 48 hours), VH-64. The conditions noted are these: 48 hours exposure; read-out: Cancer cell lines IC50 (μM) VH-64. The series is classed as cell-based. How it is done:
as §1, §2

Series [5] has as its system primary human embryonic fibroblasts. The series can be described thus: Cell viability assay (7AAD, 48 hours), normal fibroblasts. The class given is cell-based. The following applies: Fibroblast, 48 hours exposure, read-out: Normal cell lines IC50 (μM) Fibroblasts. How it is done: as §1, §2
In series [6] the test system is TC-252 Ewing's sarcoma cells. Kind of series: Cell viability assay (7AAD, 48 hours), TC-252. The following applies: 48 hours exposure; read-out: Cancer cell lines IC50 (μM) TC-252. The class given is cell-based. How it is done: as §1, §2
For series [7], the system named is STA-ET-1 Ewing's sarcoma cells. The series can be described thus: Cell viability assay (7AAD, 48 hours), STA-ET-1. The series is classed as cell-based. The following applies: 48 hours exposure; read-out: Cancer cell lines IC50 (μM) STA-ET-1. How it is done:
as §1, §2

Series [8] relates to normal cell lines (fibroblasts, osteoblasts). The series can be described thus: Cell viability assay, normal cell lines (average). The series is classed as cell-based. The conditions noted are these: Homo sapiens; average of fibroblasts and osteoblasts. How it is done:
as §1, §2

The target of series [9] is T2, 20S proteasome chymotrypsin-like (CT-L) activity (Oryctolagus cuniculus, UniProt G1T4Q9).
T2 sequence (G1T4Q9 1-263): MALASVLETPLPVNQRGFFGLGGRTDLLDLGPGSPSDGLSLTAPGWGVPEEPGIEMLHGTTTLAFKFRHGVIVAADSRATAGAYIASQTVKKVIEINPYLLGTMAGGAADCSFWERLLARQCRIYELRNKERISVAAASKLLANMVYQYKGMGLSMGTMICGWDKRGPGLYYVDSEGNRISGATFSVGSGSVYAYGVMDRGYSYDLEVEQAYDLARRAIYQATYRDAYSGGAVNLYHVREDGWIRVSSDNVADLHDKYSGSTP
The series can be described thus: In vitro proteasome activity assay, CT-L (Suc-LLVY-AMC). The class given is biochemical, rabbit. The conditions noted are these: purified 20S proteasome. As to the method: (§3) The assays were performed in vitro using purified 20S proteasome/inhibitor mixtures, with the activity of each subunit of the proteasome assessed upon incubation with its respective target peptide.
(§4) Purified rabbit 20S proteasome and fluorogenic CT-L substrate (Suc-LLVY-AMC) were purchased from Boston Biochem (Cambridge, Mass., USA). The T-L and CP-L fluorogenic substrates (Ac-RLR-AMC and Z-nLPnLD-AMC) were purchased from Enzo Life Sciences (Farmingdale, N.Y., USA). The 20S proteasome was diluted to 0.2 μg/μL in 20S proteasome buffer (50 mM HEPES pH 7.6, 150 mM NaCl and 1 mM DDT) and stored at −80° C. Purified 20S proteasome (8 ng) was pre-incubated with the indicated concentrations of inhibitors for 15 minutes and subsequently added to the AMC-labeled substrate peptide (50 μM) in assay buffer (25 mM HEPES, pH 7.5, 0.5 mM EDTA, 0.05% NP-40, and 0.001% SDS (w/v)) at 37° C. for 2 hours.

Series [10] concerns panel of sarcoma cell lines (WE-68, VH-64, STA-ET-1, TC-252). The series can be described thus: Cell viability assay, panel of four sarcoma cell lines (average). The class given is cell-based. As to the method: as §1, §2
Series [11] has as its target T3, 20S proteasome T-L activity (Oryctolagus cuniculus, UniProt G1SWK8).
T3 construct: purchased Boston Biochem
T3 sequence (G1SWK8 1-271): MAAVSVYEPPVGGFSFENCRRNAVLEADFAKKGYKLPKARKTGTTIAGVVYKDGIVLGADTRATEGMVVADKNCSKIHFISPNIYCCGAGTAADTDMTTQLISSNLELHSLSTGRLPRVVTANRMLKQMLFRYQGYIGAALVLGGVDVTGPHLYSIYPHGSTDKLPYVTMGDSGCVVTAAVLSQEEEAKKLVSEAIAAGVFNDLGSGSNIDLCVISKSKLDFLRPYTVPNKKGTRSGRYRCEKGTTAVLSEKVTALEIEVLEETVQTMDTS
The series can be described thus: In vitro proteasome activity assay, T-L (Ac-RLR-AMC). The class given is biochemical, rabbit. The following applies: purified 20S proteasome; highest concentration tested 25,000 nM. As to the method: as §3, §4

Series [12] deals with T4, ovine calpain 1 (o-CAPN1) (Ovis aries, UniProt B2ZA85).
T4 sequence (B2ZA85 1-716): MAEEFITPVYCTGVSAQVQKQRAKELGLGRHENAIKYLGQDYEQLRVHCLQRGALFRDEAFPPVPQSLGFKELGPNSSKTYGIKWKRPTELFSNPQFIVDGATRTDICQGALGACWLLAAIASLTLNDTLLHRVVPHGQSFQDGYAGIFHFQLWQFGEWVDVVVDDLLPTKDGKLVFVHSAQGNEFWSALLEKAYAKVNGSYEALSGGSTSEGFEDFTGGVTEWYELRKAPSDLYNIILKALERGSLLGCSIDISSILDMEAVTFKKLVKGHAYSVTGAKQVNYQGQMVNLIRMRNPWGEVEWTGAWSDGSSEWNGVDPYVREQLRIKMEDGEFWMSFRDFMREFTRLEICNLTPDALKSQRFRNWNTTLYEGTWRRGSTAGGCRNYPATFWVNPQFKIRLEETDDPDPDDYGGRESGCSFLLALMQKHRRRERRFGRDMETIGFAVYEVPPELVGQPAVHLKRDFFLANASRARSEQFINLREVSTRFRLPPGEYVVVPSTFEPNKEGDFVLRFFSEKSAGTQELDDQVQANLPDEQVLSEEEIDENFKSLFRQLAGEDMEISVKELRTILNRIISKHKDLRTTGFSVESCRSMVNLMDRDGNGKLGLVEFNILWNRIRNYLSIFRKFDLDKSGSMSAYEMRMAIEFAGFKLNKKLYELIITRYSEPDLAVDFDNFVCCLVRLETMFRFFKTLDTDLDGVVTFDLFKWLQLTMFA
T4 sequence (A0ACI6PYI8 1-265 partner): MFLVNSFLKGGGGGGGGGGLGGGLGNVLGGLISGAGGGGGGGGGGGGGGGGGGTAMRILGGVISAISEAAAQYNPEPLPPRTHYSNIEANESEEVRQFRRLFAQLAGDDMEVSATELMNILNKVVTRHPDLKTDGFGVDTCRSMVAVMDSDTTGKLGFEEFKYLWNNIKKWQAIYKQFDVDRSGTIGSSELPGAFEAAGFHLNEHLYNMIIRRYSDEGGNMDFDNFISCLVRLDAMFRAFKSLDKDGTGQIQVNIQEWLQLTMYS
The series can be described thus: Fluorometric calpain assay (BODIPY-Fl casein), ovine calpain 1. The class given is biochemical. As to the method: Fluorometric assays (excitation: 485 nm, emission: 520 nm) with ovine calpains 1 and 2 were done with a (BMG Labtech) Fluostar Optima plate reader at 37.0±0.2° C. in 96-well black (Greiner Bio-one) microassay plates. Calpains 1 and 2, partially purified from sheep lung by hydrophobic interaction and ion-exchange chromatography, were diluted in 20 mM MOPS, pH 7.5, containing 2 mM EGTA, 2 mM EDTA and 0.035% v/v 2-mercaptoethanol to give a linear response over the course of the assay. The substrate BODIPY-F1 casein was prepared as reported. {1} A 0.0005% solution of the substrate in 10 mM MOPS, pH 7.5, 10 mM CaCl2, 0.1 mM NaN3, 0.1% v/v 2-mercaptoethanol was prepared freshly before each experiment. […]
Inhibition studies were performed in the presence of seven different inhibitor concentrations and 1% v/v DMSO in a volume of 200 μL: 50 μl of inhibitor solution was added to a microassay well followed by 50 μl of calpain-containing solution. The reaction was initiated by adding 100 μl of BODIPY-F1 casein solution to each well and progress curves were monitored every 30 s over 570 s. Uninhibited enzyme activity was determined by adding 4% v/v DMSO in water instead of inhibitor solution. […]
The average value of rates obtained in two separate experiments, each in triplicate, was plotted versus the inhibitor concentration and IC50 values were calculated with the following equation: […]

T1 sequence (A0A5F9DQW2 1-212): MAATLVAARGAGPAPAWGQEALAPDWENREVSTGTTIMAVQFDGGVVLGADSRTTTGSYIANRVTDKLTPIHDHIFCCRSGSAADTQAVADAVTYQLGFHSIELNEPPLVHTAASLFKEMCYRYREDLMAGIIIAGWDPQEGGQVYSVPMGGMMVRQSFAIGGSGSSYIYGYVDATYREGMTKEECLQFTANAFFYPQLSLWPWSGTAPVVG

Take `C#CCOc1ccc(C[C@@H](C=O)NC(=O)[C@H](CC(C)C)NC(=O)[C@H](CN=[N+]=[N-])NC(=O)OCc2ccccc2)cc1` [Compound 1]: the melting point lay within 71 to 73 °C. Besides, the IC50 in series [1] was above 25000 nM. Further, in series [2], the IC50 was 23.7 µM. In series [3], the IC50 stood at 4.5 µM. Further, the half-maximal inhibitory concentration (IC50) in series [4] turned out to be 5.8 µM. In addition, the IC50 in series [5] is 12.2 µM. Besides, the IC50 in series [6] amounted to 5 µM. The IC50 in series [7] was 6.5 µM. This molecule also displayed an IC50 in series [8] of 18 µM. The IC50 in [9] is 34 nM. Further, the IC50 in series [10] (average of four sarcoma cell lines, read-out: Average IC50 for cancer cell lines) is 5.4 µM. The Therapeutic window result in series [10] (fold change in potency (IC50) against cancer cell line versus normal cell line) was “×3.3”. The molecule further had an IC50 in [11] above 25000 nM.

On to `CC(C)C[C@@H](C=O)NC(=O)[C@@H]1CCCCCCCCCCCC(=O)c2ccc([nH]2)C(=O)N1` [Compound 1c, (S)—N—((S)-4-methyl-1-oxopentan-2-yl)-2,16-dioxo-3,20-diazabicyclo[15.2.1]icosa-1(19),17-diene-4-carboxamide], for which the “isoform selectivity o-CAPN2 vs. o-CAPN1” value in series [12] is reported as “no isoform selectivity”.

For the molecule `CC(C)CC(C=O)NC(=O)C1CCCCOc2ccc(cc2)CCC(=O)c2ccc([nH]2)C(=O)N1` (stereo not drawn) [Compound 2c], the “isoform selectivity o-CAPN2 vs. o-CAPN1” value in [12] was “no isoform selectivity”.

For orientation: melting point means the temperature, or range, at which the solid turns liquid. By IC50 is commonly meant the midpoint of a concentration-inhibition curve.
